Here are results for three compounds from patent US20090105277A1, “AGENT FOR PREVENTING AND/OR TREATING MOVEMENT DISORDER” (KYOWA HAKKO KOGYO CO., LTD., priority 2005, published 2009).

Values joined by “and” are separate entries in the source; they are usually repeats but may differ in a detail not shown here. Identical values can stand only once.

The subject of test [1] is involuntary movement (e.g., dyskinesia) model rats. Briefly: Abnormal involuntary movements (AIMs) in involuntary movement (dyskinesia) model rats given repeated L-DOPA. The class given is in vivo, rat. Conditions: for AIMs score axial, limb, orolingual, day 1-3 / AIMs score locomotive, day 1-3 / AIMs score axial, limb, orolingual, day 8-10 / AIMs score locomotive, day 8-10: oral, multiple doses; for AIMs score axial, limb, orolingual, post value / AIMs score locomotive, post value: after 3-day drug withdrawal, L-DOPA (20 mg/kg) administered; for onset of dyskinesia: combined administration with L-DOPA 10 mg/kg, compared to single administration of L-DOPA 20 mg/kg. The text has this: It is known that abnormal involuntary movements (AIMS) are developed by repeated administration of L-DOPA to the Parkinson's disease model rat prepared by the method described in Test Example 1, and the treated rat is used as a model of an involuntary movement such as dyskinesia, or the like. AIMs are classified into 4 kinds: (1) axial AIMs: deflection or torsion of head, neck, and trunk towards the contralateral side of lesioned side of the brain, (2) limb AIMs: movements of mainly forelimb on the contralateral side of the lesioned side of the brain (bending or extension in the perpendicular direction or movements in the horizontal•back and forth directions, opening and closure of the digits etc.); (3) orolingual AIMs: jaw movements, facial distortion, tongue protrusion (accompanying behavior of biting hair, skin of forelimb on the contralateral side of the lesioned side); and (4) locomotive AIMs: contralateral rotational behavior. Of these, locomotive AIMs are induced by dopamine agonists such as bromocriptine causing less dyskinesia, and are not suppressed by a drug having an […] activity such as amantadine. From these, locomotive AIMs have been reported to reflect normal movements improved by an antiparkinsonian effect (Neurobiology of Disease, 2002, vol. 10, p. 165-86; European Journal of Neuroscience, 2002, vol. 15, p. 120-132). […] The frequency of the above-mentioned four kinds of AIMs were scored in 0 to 4 points (0 point: no symptom, 1 point: appearance in less than 50% of observation time, 2 points: appearance in 50% or more of observation time, 3 points: symptom is maintained but prevented by strong sensory stimuli, 4 points: symptom is maintained and is not prevented by strong sensory stimuli). As for axial AIMs and limb AIMs, the amplitude thereof was scored in 1 to 4 points (axial AIMs; 1 point: deflection of head and neck is less than 30 degrees, 2 points: deflection of head and neck is not less than 30 degrees and less than 60 degrees, 3 points: deflection and torsion of head, neck and upper trunk is not less than 60 degrees and less than 90 degrees, 4 points: deflection and torsion of head, neck and trunk is 90 degrees or more and balance is lost, limb AIMs; 1 point: tiny oscillatory movements of limb and distal forelimb, 2 points: low amplitude but visible translocation of both distal and proximal limbs, 3 points: translocation of the whole limb with visible contraction of shoulder muscles, 4 points: strong movements of limb and shoulder at maximul amplitude). SD male rats (6-week-old, CHARLES RIVER LABORATORIES JAPAN, INC.) were used for the test. Parkinson's disease model rats were prepared according to the method described in Test Example 1. After a postoperative period of 6 days or longer, L-DOPA (20 mg/kg/day) was repetitively and orally administered once or twice per day to give a model rat of involuntary movement such as dyskinesia, or the like. […] The rats almost free of AIMs after the lapse of 1 week or longer from repetitive administration of L-DOPA were removed. As the group constitution, an L-DOPA 20 mg/kg and 0.5% MC solution administration group (single administration group) and an L-DOPA 10 mg/kg and test compound administration group (combined administration group) were used. The test compound was used in the same dose as in Test Example 1, whereby the conditions under which both the single administration group and the combined administration group show the same level of antiparkinsonian activity were set. After grouping, multiple doses of L-DOPA 20 mg/kg and 0.5% MC solution, and L-DOPA 10 mg/kg and test compound were orally administered, respectively. […] After the completion of administration, a 3-day drug withdrawal period was taken, and then L-DOPA (20 mg/kg) was administered. The AIMs score at this time was taken as the post value. The AIMs score of each group was expressed as mean±standard deviation of total AIMs score observed in individual rats for one day. […]

For test [2], the system named is 6-OHDA treated rats (Parkinson's disease model rat). Briefly: L-DOPA induced contralateral rotational behavior (antiparkinsonian effect) in the Parkinson's disease model rats. Format: in vivo. Particulars: for number of rotations: oral, total count in 3 hr; for antiparkinsonian activity compared with single administration of L-DOPA 20 mg/kg: L-DOPA 10 mg/kg and test compound combined; for effect on L-DOPA induced rotational behavior, namely antiparkinsonian activity: combined with L-DOPA 10 mg/kg, vs L-DOPA 10 mg/kg + 0.5% MC solution.

The mark [3] stands for this setting: L-DOPA (20 mg/kg) + 0.5% MC solution (single administration).
Where [4] appears, read: group L-DOPA (20 mg/kg) + 0.5% MC solution.
[5] abbreviates: L-DOPA (10 mg/kg) + compound 1 (30 mg/kg).
Setting [6] is: group L-DOPA (10 mg/kg) + compound 1 (30 mg/kg).
[7] abbreviates: L-DOPA (10 mg/kg) + compound 2 (1 mg/kg).
The mark [8] stands for this setting: group L-DOPA (10 mg/kg) + compound 2 (1 mg/kg).

For the compound `N[C@@H](Cc1ccc(O)c(O)c1)C(=O)O` [L-DOPA, reference compound], in test [1] (setting [3]), the “AIMs score axial, limb, orolingual, day 1-3” value (from here on “AIMs score axial … day 1-3”) was 272.9 ± 25.9 and 271.9 ± 12.6; the “AIMs score locomotive, day 1-3” value was 16.0 ± 2.1 and 12.4 ± 2.6; the “AIMs score axial, limb, orolingual, day 8-10” value (“AIMs score axial … day 8-10” for short) was 291.7 ± 16.7 and 232.4 ± 26.2; the “AIMs score locomotive, day 8-10” value was 16.1 ± 2.1 and 13.6 ± 1.7. In test [1] (setting [4]), the “AIMs score axial, limb, orolingual, post value” (from here on “AIMs score axial … post value”) was 129.3 ± 14.3 and 139.1 ± 12.6; the “AIMs score locomotive, post value” was 16.3 ± 2.8 and 15.0 ± 1.4. The number of rotations in test [2] (L-DOPA (10 mg/kg) + 0.5% MC solution (single administration)) was 534.3 ± 123.4 and 367.3 ± 140.6.
On to `CC(C)(O)CCN1CCN(c2cc3nc(-c4ccco4)nn3c(N)n2)CC1` [compound 1], for which, in test [1] (setting [5]), the “AIMs score axial … day 1-3” value is recorded as 78.3 ± 17.2; the “AIMs score locomotive, day 1-3” value was 16.3 ± 3.5; the “AIMs score axial … day 8-10” value came out at 105.0 ± 24.1; the “AIMs score locomotive, day 8-10” value was found to be 16.4 ± 3.9. Besides, the onset of dyskinesia result in test [1] is recorded as “significant suppression”. Moreover, in test [1] (setting [6]), the “AIMs score axial … post value” was determined as 106.9 ± 14.0 and the “AIMs score locomotive, post value” is 17.1 ± 3.1. In test [2], the “antiparkinsonian activity compared with single administration of L-DOPA 20 mg/kg” value is “same level” and the “effect on L-DOPA induced rotational behavior, namely antiparkinsonian activity” value is reported as “significantly enhanced”. The number of rotations in test [2] (L-DOPA (10 mg/kg) + compound 1 (30 mg/kg), mean±standard deviation) came to 1732.2 ± 305.2.
For `COCCOc1ccc(N2CCN(CCn3ncc4c3nc(N)n3nc(-c5ccco5)nc43)CC2)cc1` [compound 2], in test [1] (setting [7]), the “AIMs score axial … day 1-3” value is 146.4 ± 13.3; the “AIMs score locomotive, day 1-3” value was 14.8 ± 1.7; the “AIMs score axial … day 8-10” value was found to be 117.5 ± 15.5; the “AIMs score locomotive, day 8-10” value is given as 14.4 ± 1.7. The onset of dyskinesia entry in test [1] is on record as “significant suppression”. Besides, in test [1] (setting [8]), the “AIMs score axial … post value” turned out to be 159.8 ± 24.7 and the “AIMs score locomotive, post value” is 13.1 ± 1.7. Moreover, in test [2], the “antiparkinsonian activity compared with single administration of L-DOPA 20 mg/kg” value is “same level” and the “effect on L-DOPA induced rotational behavior, namely antiparkinsonian activity” value is “significantly enhanced”. Moreover, in test [2] (L-DOPA (10 mg/kg) + compound 2 (1 mg/kg), mean±standard deviation), the number of rotations is 1543.5 ± 263.2.
